What is called IC50 is the point on the concentration scale where inhibition reaches its midpoint.

SMILES strings stand for the structures.

In the test the target is T1, human glucocorticoid receptor (GR) complex (Homo sapiens, UniProt P04150).
T1 construct: made in house; host or cells: insect expression system (baculovirus lysate)
T1 sequence (P04150 1-777): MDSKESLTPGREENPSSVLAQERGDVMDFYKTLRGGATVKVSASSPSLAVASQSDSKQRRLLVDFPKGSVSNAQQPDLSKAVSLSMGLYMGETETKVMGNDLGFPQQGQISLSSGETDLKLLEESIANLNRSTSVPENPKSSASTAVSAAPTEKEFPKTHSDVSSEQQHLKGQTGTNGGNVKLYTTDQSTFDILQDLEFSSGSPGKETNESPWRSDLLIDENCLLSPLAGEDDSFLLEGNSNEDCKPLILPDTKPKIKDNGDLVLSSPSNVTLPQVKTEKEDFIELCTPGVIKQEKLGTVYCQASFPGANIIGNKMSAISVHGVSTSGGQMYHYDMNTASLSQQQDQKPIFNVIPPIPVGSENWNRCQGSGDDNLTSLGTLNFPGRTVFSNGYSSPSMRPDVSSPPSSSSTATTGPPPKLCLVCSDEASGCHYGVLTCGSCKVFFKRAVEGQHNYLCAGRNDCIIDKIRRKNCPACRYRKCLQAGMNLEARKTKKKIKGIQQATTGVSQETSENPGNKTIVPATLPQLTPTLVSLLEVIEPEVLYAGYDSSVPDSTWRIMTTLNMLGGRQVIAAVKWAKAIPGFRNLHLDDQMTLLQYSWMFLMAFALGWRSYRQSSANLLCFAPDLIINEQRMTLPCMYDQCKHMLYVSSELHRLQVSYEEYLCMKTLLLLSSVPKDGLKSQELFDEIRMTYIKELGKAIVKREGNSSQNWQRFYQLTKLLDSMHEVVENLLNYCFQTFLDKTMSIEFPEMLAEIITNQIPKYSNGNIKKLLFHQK
The experiment in a line: Glucocorticoid receptor competitive binding assay (fluorescence polarization). The settings on record: competition with TAMRA-labeled dexamethasone, read-out: potent activity (IC50) in the GR binding assay. The method, boiled down:
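Human GR complex in baculovirus insect-cell lysate (1:170) competed against 15 nM TAMRA-dexamethasone stock for 1 h at room temperature. Buffer: TES/KCl/molybdate/EDTA/CHAPS/glycerol/DTT, pH 7.4, 1% DMSO final. FP read at 550/580 nm; IC50 from 4-parameter logistic fit.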
(In fluorescence polarisation assays a small probe gives low polarisation when free and higher when bound to something large.)

Turning to `CCOc1cccc(SCC(NS(=O)(=O)c2c(C)cc(C)cc2C)C(F)(F)F)c1` (stereo not drawn) [N-[1-(3-Ethoxyphenylsulfanylmethyl)-2,2,2-trifluoroethyl]-2,4,6-trimethylbenzenesulfonamide], the IC50 was ≤ 100 nM.

Consider `Cc1cc(C)c(S(=O)(=O)NC(COc2ccc(Br)cc2C)C(F)(F)F)c(C)c1` (stereo not drawn) [N-[1-(4-Bromo-2-methylphenoxymethyl)-2,2,2-trifluoroethyl]-2,4,6-trimethylbenzenesulfonamide], for which the IC50 was ≤ 100 nM.

Consider `Cc1cc(C)c(S(=O)(=O)NC(CSc2ccc(Br)cc2OC(F)(F)F)C(F)(F)F)c(C)c1` (stereo not drawn) [N-[1-(4-Bromo-2-trifluoromethoxyphenylsulfanylmethyl)-2,2,2-trifluoroethyl]-2,4,6-trimethylbenzenesulfonamide], for which the IC50 was ≤ 100 nM.

Take `Cc1cc(C)c(S(=O)(=O)NC(COc2ccc(Br)cc2)C(F)(F)F)c(C)c1` (stereo not drawn) [N-[1-(4-Bromophenoxymethyl)-2,2,2-trifluoroethyl]-2,4,6-trimethylbenzenesulfonamide]: the concentration for half-maximal inhibition (IC50) is ≤ 100 nM.

Regarding `Cc1cc(C)c(S(=O)(=O)NC(CSc2ccc(Br)cc2)C(F)(F)F)c(C)c1` (stereo not drawn) [N-[1-(4-Bromophenylsulfanylmethyl)-2,2,2-trifluoroethyl]-2,4,6-trimethylbenzenesulfonamide], the IC50 was ≤ 100 nM.

In the case of `Cc1cc(C)c(S(=O)(=O)NC(COc2ccc(Cl)cc2F)C(F)(F)F)c(C)c1` (stereo not drawn) [N-[1-(4-Chloro-2-fluorophenoxymethyl)-2,2,2-trifluoroethyl]-2,4,6-trimethylbenzenesulfonamide], the IC50 was ≤ 100 nM.

In the case of `Cc1cc(C)c(S(=O)(=O)NC(COc2ccc(Cl)c(C(F)(F)F)c2)C(F)(F)F)c(C)c1` (stereo not drawn) [N-[1-(4-Chloro-3-trifluoromethylphenoxymethyl)-2,2,2-trifluoroethyl]-2,4,6-trimethylbenzenesulfonamide], the concentration for half-maximal inhibition (IC50) was ≤ 100 nM.

`Cc1cc(C)c(S(=O)(=O)NC(CSc2ccc(Cl)cc2)C(F)(F)F)c(C)c1` (stereo not drawn) [N-[1-(4-Chlorophenylsulfanylmethyl)-2,2,2-trifluoroethyl]-2,4,6-trimethylbenzenesulfonamide]: the half-inhibitory concentration (IC50) was ≤ 100 nM.

`Cc1cc(C)c(S(=O)(=O)NC(COc2cc(C)c(C#N)c(C)c2)C(F)(F)F)c(C)c1` (stereo not drawn) [N-[1-(4-Cyano-3,5-dimethylphenoxymethyl)-2,2,2-trifluoroethyl]-2,4,6-trimethylbenzenesulfonamide]: the IC50 was ≤ 100 nM.

As to `Cc1cc(C)c(S(=O)(=O)NC(COc2ccc(C#N)cc2)C(F)(F)F)c(C)c1` (stereo not drawn) [N-[1-(4-Cyanophenoxymethyl)-2,2,2-trifluoroethyl]-2,4,6-trimethylbenzenesulfonamide], the IC50 is ≤ 100 nM.

For the molecule `Cc1cc(C)c(S(=O)(=O)NC(COc2cc(Cl)ccc2C)C(F)(F)F)c(C)c1` (stereo not drawn) [N-[1-(5-Chloro-2-methylphenoxymethyl)-2,2,2-trifluoroethyl]-2,4,6-trimethylbenzenesulfonamide], the IC50 is ≤ 100 nM.

`Cc1cc(C)c(S(=O)(=O)NC(CNc2ccc(F)cc2F)C(F)(F)F)c(C)c1` (stereo not drawn) [N-{1-[(2,4-Difluorophenylamino)methyl]-2,2,2-trifluoroethyl}-2,4,6-trimethylbenzenesulfonamide]: the IC50 is ≤ 100 nM.

With `COc1ccc(NCC(NS(=O)(=O)c2c(C)cc(C)cc2C)C(F)(F)F)c(OC)c1` (stereo not drawn) [N-{1-[(2,4-Dimethoxyphenylamino)methyl]-2,2,2-trifluoroethyl}-2,4,6-trimethylbenzenesulfonamide], the concentration for half-maximal inhibition (IC50) was ≤ 100 nM.

For the molecule `Cc1ccc(NCC(NS(=O)(=O)c2c(C)cc(C)cc2C)C(F)(F)F)c(C)c1` (stereo not drawn) [N-{1-[(2,4-Dimethylphenylamino)methyl]-2,2,2-trifluoroethyl}-2,4,6-trimethylbenzenesulfonamide], the IC50 was ≤ 100 nM.

For `Cc1cc(C)c(S(=O)(=O)NC(CNc2cc(Cl)ccc2Cl)C(F)(F)F)c(C)c1` (stereo not drawn) [N-{1-[(2,5-Dichlorophenylamino)methyl]-2,2,2-trifluoroethyl}-2,4,6-trimethylbenzenesulfonamide], the IC50 is ≤ 100 nM.

Regarding `Cc1cc(C)c(S(=O)(=O)NC(CNc2c(Cl)cccc2Cl)C(F)(F)F)c(C)c1` (stereo not drawn) [N-{1-[(2,6-Dichlorophenylamino)methyl]-2,2,2-trifluoroethyl}-2,4,6-trimethylbenzenesulfonamide], the IC50 is ≤ 100 nM.

In the case of `Cc1cc(C)c(S(=O)(=O)NC(CNc2c(F)cccc2F)C(F)(F)F)c(C)c1` (stereo not drawn) [N-{1-[(2,6-Difluorophenylamino)methyl]-2,2,2-trifluoroethyl}-2,4,6-trimethylbenzenesulfonamide], the IC50 is ≤ 100 nM.

Take `Cc1cc(C)c(S(=O)(=O)NC(CNc2ccc(C#N)cc2Cl)C(F)(F)F)c(C)c1` (stereo not drawn) [N-{1-[(2-Chloro-4-cyanophenylamino)methyl]-2,2,2-trifluoroethyl}-2,4,6-trimethylbenzenesulfonamide]: the half-maximal inhibitory concentration (IC50) was ≤ 100 nM.

Turning to `Cc1cc(C)c(S(=O)(=O)NC(CNc2cc(C(F)(F)F)ccc2Cl)C(F)(F)F)c(C)c1` (stereo not drawn) [N-{1-[(2-Chloro-5-trifluoromethylphenylamino)methyl]-2,2,2-trifluoroethyl}-2,4,6-trimethylbenzenesulfonamide], the IC50 was ≤ 100 nM.

Turning to `Cc1cc(C)c(S(=O)(=O)NC(CNc2ccccc2Cl)C(F)(F)F)c(C)c1` (stereo not drawn) [N-{1-[(2-Chlorophenylamino)methyl]-2,2,2-trifluoroethyl}-2,4,6-trimethylbenzenesulfonamide], the IC50 is ≤ 100 nM.

Consider `Cc1cc(C)c(S(=O)(=O)NC(CNc2cccc(C)c2C#N)C(F)(F)F)c(C)c1` (stereo not drawn) [N-{1-[(2-Cyano-3-methylphenylamino)methyl]-2,2,2-trifluoroethyl}-2,4,6-trimethylbenzenesulfonamide], for which the IC50 is ≤ 100 nM.

On to `Cc1cc(C)c(S(=O)(=O)NC(CNc2ccccc2C#N)C(F)(F)F)c(C)c1` (stereo not drawn) [N-{1-[(2-Cyanophenylamino)methyl]-2,2,2-trifluoroethyl}-2,4,6-trimethylbenzenesulfonamide], for which the IC50 was ≤ 100 nM.

For the molecule `CCc1cccc(C)c1NCC(NS(=O)(=O)c1c(C)cc(C)cc1C)C(F)(F)F` (stereo not drawn) [N-{1-[(2-Ethyl-6-methylphenylamino)methyl]-2,2,2-trifluoroethyl}-2,4,6-trimethylbenzenesulfonamide], the 50% inhibitory concentration (IC50) was ≤ 100 nM.

For the molecule `Cc1cc(C)cc(NCC(NS(=O)(=O)c2c(C)cc(C)cc2C)C(C)C)c1` (stereo not drawn) [N-{1-[(3,5-Dimethylphenylamino)methyl]-2-methylpropyl}-2,4,6-trimethylbenzenesulfonamide], the IC50 was ≤ 100 nM.

Regarding `Cc1cc(C)cc(NCC(NS(=O)(=O)c2c(C)cc(C)cc2C)C(F)(F)F)c1` (stereo not drawn) [N-{1-[(3,5-Dimethylphenylamnino)methyl]-2,2,2-trifluoroethyl}-2,4,6-trimethyl-benzenesulfonamide], the 50% inhibitory concentration (IC50) was ≤ 100 nM.

As for `Cc1cc(C)c(S(=O)(=O)NC(CNc2cccc(Br)c2)C(F)(F)F)c(C)c1` (stereo not drawn) [N-{1-[(3-Bromophenylamino)methyl]-2,2,2-trifluoroethyl}-2,4,6-trimethylbenzenesulfonamide], the IC50 is ≤ 100 nM.

With `Cc1cc(C)c(S(=O)(=O)NC(CNc2cccc(Cl)c2C#N)C(F)(F)F)c(C)c1` (stereo not drawn) [N-{1-[(3-Chloro-2-cyanophenylamino)methyl]-2,2,2-trifluoroethyl}-2,4,6-trimethylbenzenesulfonamide], the IC50 is ≤ 100 nM.

`Cc1cc(C)c(S(=O)(=O)NC(CNc2ccc(C#N)c(Cl)c2)C(F)(F)F)c(C)c1` (stereo not drawn) [N-{1-[(3-Chloro-4-cyanophenylamino)methyl]-2,2,2-trifluoroethyl}-2,4,6-trimethylbenzenesulfonamide]: the IC50 is ≤ 100 nM.

For `Cc1cc(C)c(S(=O)(=O)NC(CNc2cccc(Cl)c2)C(F)(F)F)c(C)c1` (stereo not drawn) [N-{1-[(3-Chlorophenylamino)methyl]-2,2,2-trifluoroethyl}-2,4,6-trimethylbenzenesulfonamide], the IC50 was ≤ 100 nM.

Consider `Cc1cc(C)c(S(=O)(=O)NC(CNc2cccc(C#N)c2)C(F)(F)F)c(C)c1` (stereo not drawn) [N-{1-[(3-Cyanophenylamino)methyl]-2,2,2-trifluoroethyl}-2,4,6-trimethylbenzenesulfonamide], for which the 50% inhibitory concentration (IC50) was ≤ 100 nM.

On to `Cc1cc(C)c(S(=O)(=O)NC(CNc2ccc(Cl)cc2C#N)C(F)(F)F)c(C)c1` (stereo not drawn) [N-{1-[(4-Chloro-2-cyanophenylamino)methyl]-2,2,2-trifluoroethyl}-2,4,6-trimethylbenzenesulfonamide], for which the IC50 was ≤ 100 nM.

On to `Cc1cc(C)c(S(=O)(=O)NC(CNc2ccc(C#N)cc2)C(F)(F)F)c(C)c1` (stereo not drawn) [N-{1-[(4-Cyanophenylamino)methyl]-2,2,2-trifluoroethyl}-2,4,6-trimethylbenzenesulfonamide], for which the IC50 is ≤ 100 nM.

Regarding `Cc1cc(C)c(S(=O)(=O)NC(CNc2cc(Cl)ccc2C)C(F)(F)F)c(C)c1` (stereo not drawn) [N-{1-[(5-Chloro-2-methylphenylamino)methyl]-2,2,2-trifluoroethyl}-2,4,6-trimethylbenzenesulfonamide], the IC50 was ≤ 100 nM.

(Values after patent US20100048950A1 (BOEHRINGER INGELHEIM INTERNATIONAL GMBH, priority 2007, published 2010).)
